Test results: ChEMBL document CHEMBL4428125, “8-Substituted 1,3-dimethyltetrahydropyrazino[2,1-f]purinediones: Water-soluble adenosine receptor antagonists and monoamine oxidase B inhibitors” (Bioorg Med Chem, 2016)
≈ marks a conversion by molar mass, not a printed value.

Legend:
Adenosine receptor A1 = target: T1, Adenosine receptor A1 (Rattus norvegicus, UniProt P25099); assay: Displacement of [3H]CCPA from A1 receptor in rat brain cortex membranes by liquid scintillation counting method; type: cell membranes
T1 sequence (P25099 whole entry): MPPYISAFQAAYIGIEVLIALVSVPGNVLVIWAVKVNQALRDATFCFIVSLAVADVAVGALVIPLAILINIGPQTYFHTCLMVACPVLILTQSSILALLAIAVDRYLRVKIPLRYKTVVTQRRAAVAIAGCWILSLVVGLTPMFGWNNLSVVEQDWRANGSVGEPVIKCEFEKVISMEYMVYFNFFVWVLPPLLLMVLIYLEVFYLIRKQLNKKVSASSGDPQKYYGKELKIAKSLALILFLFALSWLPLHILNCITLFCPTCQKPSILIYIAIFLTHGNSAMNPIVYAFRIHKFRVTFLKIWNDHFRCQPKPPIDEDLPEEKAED

[1] = target: T2, Adenosine receptor A1 (Rattus norvegicus) (UniProt P25099); assay: Displacement of [3H]CCPA from A1 receptor in rat brain cortex membranes at 1.5 uM by liquid scintillation counting method; type: cell membranes
T2 sequence (whole entry): T1 sequence (P25099 whole entry)

Adenosine receptor A2a = Adenosine receptor A2a (Rattus norvegicus, UniProt P30543); assay: Displacement of [3H]MSX from A2A receptor in rat brain striatum membranes measured after 30 mins by liquid scintillation counting method; type: cell membranes
[2] = target: Adenosine receptor A2a (Rattus norvegicus) (UniProt P30543); assay: Displacement of [3H]MSX from A2A receptor in rat brain striatum membranes at 1 uM measured after 30 mins by liquid scintillation counting method relative to control; type: cell membranes
[3] = target: T3, Amine oxidase [flavin-containing] B (Homo sapiens, UniProt P27338); assay: Inhibition of recombinant human MAO-B expressed in baculovirus infected BTI insect cells preincubated for 30 mins followed by addition of p-tyramine as substrate measured over 45 mins by Amplex Red MAO assay
T3 sequence (P27338 whole entry): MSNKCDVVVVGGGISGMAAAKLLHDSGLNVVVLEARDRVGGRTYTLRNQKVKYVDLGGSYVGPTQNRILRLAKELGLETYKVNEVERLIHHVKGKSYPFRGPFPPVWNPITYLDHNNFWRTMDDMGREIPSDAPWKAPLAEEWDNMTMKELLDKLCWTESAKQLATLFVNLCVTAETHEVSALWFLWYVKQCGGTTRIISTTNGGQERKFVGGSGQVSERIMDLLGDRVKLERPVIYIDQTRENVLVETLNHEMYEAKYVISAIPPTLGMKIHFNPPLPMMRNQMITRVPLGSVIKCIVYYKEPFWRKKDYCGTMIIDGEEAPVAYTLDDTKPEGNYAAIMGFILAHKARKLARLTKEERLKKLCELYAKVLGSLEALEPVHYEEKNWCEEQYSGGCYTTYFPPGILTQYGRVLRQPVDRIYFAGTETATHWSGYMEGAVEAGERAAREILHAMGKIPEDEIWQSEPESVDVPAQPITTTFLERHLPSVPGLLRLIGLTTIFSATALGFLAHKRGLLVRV

[4] = target: T3, Amine oxidase [flavin-containing] B; assay: Inhibition of recombinant human MAO-B expressed in baculovirus infected BTI insect cells at 10 uM preincubated for 30 mins followed by addition of p-tyramine as substrate measured over 45 mins by Amplex Red MAO assay relative to control; conditions: 0.75 h
Adenosine receptor A2b = target: T4, Adenosine receptor A2b (Homo sapiens, UniProt P29275); assay: Displacement of [3H]PSB-603 from human A2B receptor expressed in CHO cell membrane; type: cell membranes
T4 sequence (P29275 whole entry): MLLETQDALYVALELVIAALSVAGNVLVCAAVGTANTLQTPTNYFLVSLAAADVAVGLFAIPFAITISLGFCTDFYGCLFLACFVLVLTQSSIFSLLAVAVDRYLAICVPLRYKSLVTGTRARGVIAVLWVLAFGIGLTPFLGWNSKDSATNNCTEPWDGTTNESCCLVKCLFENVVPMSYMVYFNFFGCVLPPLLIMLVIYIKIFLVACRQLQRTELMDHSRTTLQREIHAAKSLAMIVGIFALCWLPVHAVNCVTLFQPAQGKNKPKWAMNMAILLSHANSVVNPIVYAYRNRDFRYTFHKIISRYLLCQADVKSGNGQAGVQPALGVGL

[5] = target: T5, Adenosine receptor A2b (Homo sapiens) (UniProt P29275); assay: Displacement of [3H]PSB-603 from human A2B receptor expressed in CHO cell membrane at 1 uM relative to control; type: cell membranes
T5 sequence (whole entry): T4 sequence (P29275 whole entry)

Adenosine receptor A3 = target: T6, Adenosine receptor A3 (Homo sapiens, UniProt P0DMS8); assay: Displacement of [3H]PSB-11 from human A3 receptor expressed in CHO cell membrane by liquid scintillation counting method relative to control; type: cell membranes
T6 sequence (P0DMS8 whole entry): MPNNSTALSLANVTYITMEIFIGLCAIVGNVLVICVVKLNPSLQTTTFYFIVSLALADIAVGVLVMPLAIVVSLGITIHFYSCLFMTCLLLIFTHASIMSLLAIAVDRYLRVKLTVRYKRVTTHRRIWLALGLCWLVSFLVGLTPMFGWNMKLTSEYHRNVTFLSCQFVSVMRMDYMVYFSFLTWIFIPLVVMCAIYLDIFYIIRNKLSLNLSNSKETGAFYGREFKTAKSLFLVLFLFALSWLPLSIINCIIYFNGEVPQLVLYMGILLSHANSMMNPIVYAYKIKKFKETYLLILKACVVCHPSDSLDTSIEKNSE

[6] = target: T7, Adenosine receptor A3 (Homo sapiens) (UniProt P0DMS8); assay: Displacement of [3H]PSB-11 from human A3 receptor expressed in CHO cell membrane at 10 uM by liquid scintillation counting method relative to control relative to control; type: cell membranes
T7 sequence (whole entry): T6 sequence (P0DMS8 whole entry)

[7] = Thermodynamic solubility of the compound at pH 1; type: physicochemical; conditions: buffer, read-out: Therm_solubility
[8] = Thermodynamic solubility of the compound at pH 4; type: physicochemical; conditions: buffer, read-out: Therm_solubility
[9] = Thermodynamic solubility of the compound at pH 7.4; type: physicochemical; conditions: buffer, read-out: Therm_solubility
[10] = target: T8, Amine oxidase [flavin-containing] A (Homo sapiens, UniProt P21397); assay: Inhibition of recombinant human MAO-A expressed in baculovirus infected BTI insect cells preincubated for 30 mins followed by addition of p-tyramine as substrate measured over 45 mins by Amplex Red MAO assay
T8 sequence (P21397 whole entry): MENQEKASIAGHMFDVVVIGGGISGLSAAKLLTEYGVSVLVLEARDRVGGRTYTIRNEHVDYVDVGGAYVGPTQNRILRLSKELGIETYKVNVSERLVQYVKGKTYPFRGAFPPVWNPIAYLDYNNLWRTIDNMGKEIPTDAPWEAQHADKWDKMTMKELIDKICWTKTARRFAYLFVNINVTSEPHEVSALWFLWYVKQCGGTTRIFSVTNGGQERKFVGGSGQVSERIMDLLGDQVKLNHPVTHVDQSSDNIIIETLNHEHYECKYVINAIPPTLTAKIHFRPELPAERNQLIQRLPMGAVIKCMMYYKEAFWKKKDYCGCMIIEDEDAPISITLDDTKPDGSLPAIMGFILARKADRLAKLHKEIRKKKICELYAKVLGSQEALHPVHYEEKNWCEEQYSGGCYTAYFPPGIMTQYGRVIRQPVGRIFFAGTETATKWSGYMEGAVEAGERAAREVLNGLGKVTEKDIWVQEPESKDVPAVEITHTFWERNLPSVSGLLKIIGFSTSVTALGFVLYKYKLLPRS

[11] = target: T8, Amine oxidase [flavin-containing] A; assay: Inhibition of recombinant human MAO-A expressed in baculovirus infected BTI insect cells at 10 uM preincubated for 30 mins followed by addition of p-tyramine as substrate measured over 45 mins by Amplex Red MAO assay relative to control; conditions: 0.75 h

Sequence of Adenosine receptor A2a (P30543 whole entry): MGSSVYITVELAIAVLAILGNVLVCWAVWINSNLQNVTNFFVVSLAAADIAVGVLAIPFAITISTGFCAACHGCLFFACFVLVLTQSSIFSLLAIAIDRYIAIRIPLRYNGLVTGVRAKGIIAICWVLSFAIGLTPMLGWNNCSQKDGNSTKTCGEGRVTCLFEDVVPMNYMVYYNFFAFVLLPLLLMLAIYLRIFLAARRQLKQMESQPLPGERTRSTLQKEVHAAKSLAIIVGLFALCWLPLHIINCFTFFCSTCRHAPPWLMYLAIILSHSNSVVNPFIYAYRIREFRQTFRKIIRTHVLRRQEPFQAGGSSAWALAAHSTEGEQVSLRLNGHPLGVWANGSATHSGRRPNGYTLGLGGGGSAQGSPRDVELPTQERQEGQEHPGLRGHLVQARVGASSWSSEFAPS
Sequence of Adenosine receptor A2a (Rattus norvegicus) (P30543 whole entry): as above

SMILES	Ki (Adenosine receptor A1)	Activity [1]	Ki (Adenosine receptor A2a)	Activity [2]	IC50 [3]	inhibition at 10 µM [4]	Ki (Adenosine receptor A2b)	Activity [5]	Ki (Adenosine receptor A3)	Activity [6]	solubility thermodynamic [7]	solubility thermodynamic [8]	solubility thermodynamic [9]	IC50 [10]	inhibition at 10 µM [11]
Cn1c(=O)c2c(nc3n2CCN(CCOc2ccccc2F)C3)n(C)c1=O	> 1500 nM	5%	> 1000 nM	23%	> 10000 nM	24%	> 1000 nM	12%	> 10000 nM	41%	> 1500 µg/mL	< 0.5 µg/mL	< 0.5 µg/mL		
COc1cccc(CCN2CCn3c(nc4c3c(=O)n(C)c(=O)n4C)C2)c1	> 1500 nM	17%	> 1000 nM	31%	> 10000 nM	10%	> 1000 nM	5%	> 10000 nM	23%					
Cn1c(=O)c2c(nc3n2CCN(CCc2ccccc2Br)C3)n(C)c1=O	> 1500 nM	10%	> 1000 nM	27%	970 nM		> 1000 nM	24%	> 10000 nM	35%	> 1500 µg/mL	< 0.5 µg/mL	< 0.5 µg/mL		
COc1ccccc1CCN1CCn2c(nc3c2c(=O)n(C)c(=O)n3C)C1	> 1500 nM	9%	> 1000 nM	15%	> 10000 nM	4%	> 1000 nM	7%	> 10000 nM	39%					
COc1cccc2c1CC[C@H](N1CCn3c(nc4c3c(=O)n(C)c(=O)n4C)C1)C2	> 1500 nM	11%	> 1000 nM	11%	> 10000 nM	7%	> 1000 nM	9%	> 10000 nM	8%				> 10000 nM	2%
Cn1c(=O)c2c(nc3n2CCN(Cc2cn(-c4ccc(Cl)cc4)nn2)C3)n(C)c1=O	> 1500 nM	36%	> 1000 nM	26%	> 10000 nM	12%	> 1000 nM	27%	> 10000 nM	11%					
Cn1c(=O)c2c(nc3n2CCN(CC(O)c2ccccc2)C3)n(C)c1=O (stereo not drawn)	> 1500 nM	7%	7110 nM		> 10000 nM	3%	> 1000 nM	20%	> 10000 nM	11%	1100 µg/mL (≈ 3100 µM)	70 µg/mL (≈ 197 µM)	90 µg/mL (≈ 253 µM)		
Cn1c(=O)c2c(nc3n2CCN(CCc2ccc(O)cc2)C3)n(C)c1=O	> 1500 nM	11%	6040 nM		> 10000 nM	15%	> 1000 nM	8%	> 10000 nM	35%			1 µg/mL (≈ 2.81 µM)		
Cn1c(=O)c2c(nc3n2CCN(CCCn2ccnc2)C3)n(C)c1=O	> 1500 nM	13%	> 1000 nM	13%	> 10000 nM	2%	> 1000 nM	4%	> 10000 nM	11%					
Cc1sc(-c2ccc(C(F)(F)F)cc2)nc1CN1CCn2c(nc3c2c(=O)n(C)c(=O)n3C)C1	> 1500 nM	25%	> 1000 nM	19%	10000 nM	67%	> 1000 nM	30%	> 10000 nM	40%			1 µg/mL (≈ 2.04 µM)		
COc1cccc(C#CCN2CCn3c(nc4c3c(=O)n(C)c(=O)n4C)C2)c1	> 1500 nM	17%	> 1000 nM	32%	> 10000 nM	13%	> 1000 nM	7%	> 10000 nM	9%					
Cc1cc(CN2CCn3c(nc4c3c(=O)n(C)c(=O)n4C)C2)n(C)n1	> 1500 nM	15%	> 1000 nM	14%	> 10000 nM	-17%	> 1000 nM	8%	> 10000 nM	5%			700 µg/mL (≈ 2040 µM)		
COc1cccc(CCN2CCn3c(nc4c3c(=O)n(C)c(=O)n4C)C2)c1OC	> 1500 nM	5%	> 1000 nM	30%	> 10000 nM	1%	> 1000 nM	8%	> 10000 nM	43%					
Cn1c(=O)c2c(nc3n2CCN(CCc2ccc(Cl)cc2)C3)n(C)c1=O	> 1500 nM	22%	4960 nM		> 10000 nM	36%	> 1000 nM	4%	> 10000 nM	37%			1 µg/mL (≈ 2.67 µM)		
Cn1c(=O)c2c(nc3n2CCN(CC#Cc2cccc(Cl)c2)C3)n(C)c1=O	> 1500 nM	17%	> 1000 nM	42%	> 10000 nM	5%	> 1000 nM	7%	> 10000 nM	20%				> 10000 nM	19%
